The results in this text go back to patent US11013219B2, “Metabolism-based drug screening platform in bioengineered zebrafish” (Path Therapeutics, Inc., priority 2014, dated 2021).

In one experiment the test system is park2 morphants. The experiment is described as follows: Seahorse basal respiration, park2 morphants (Parkinson's Disease model). It counts as in vivo, zebrafish. Conditions: park2-MO. The procedure: (§1) Next, all positive hits were assayed for improve bioenergetics using Seahorse bioanalyzer (Seahorse, Inc). Briefly, morphant zebrafish were seeded into 24-well Islet Flux plates (Seahorse) and incubated with compound or vehicle for 10 minutes prior to analysis. Complete mitochondrial profile was assessed for each individual larvae. Drugs that improved bioenergetics by 40% were considered candidate drugs.
(§2) Morpholinos directed to scn1a (epilepsy), park2 (neurodegenerative disease), idh1 (brain tumors (astrocytoma/oligodendrogliomas), cdkn2b (oligodendroglioma), h3f3a (oligodendroglioma), snf5 (smarcbla in zebrafish; Atypical Teratoid/Rhabdoid)), and shank3 (Autism Spectrum Disorder) were created and zebrafish larvae exposed as detailed in Example 3.

The test system of the next experiment is cdkn2b morphants. As to the kind of experiment: Seahorse basal respiration, cdkn2b morphants (glioblastoma model). The experiment is classed as in vivo, zebrafish. The following applies: cdkn2b-MO. The procedure:
as §1, §2

The subject of another experiment is smarcbla morphants. The experiment is described as follows: Seahorse basal respiration, smarcbla morphants (AT/RT model). It counts as in vivo, zebrafish. The following applies: smarcbla-MO. The procedure:
Next, all positive hits were assayed for improve bioenergetics using Seahorse bioanalyzer (Seahorse, Inc). Briefly, morphant zebrafish were seeded into 24-well Islet Flux plates (Seahorse) and incubated with compound or vehicle for 10 minutes prior to analysis. Complete mitochondrial profile was assessed for each individual larvae.
as §2

The test system of the next experiment is shank3 morphants. As to the kind of experiment: Seahorse basal respiration, shank3 morphants (ASD and schizophrenia model). It counts as in vivo, zebrafish. Conditions: shank3-MO. On the procedure:
as §1, §2

For experiment [1], the system named is scn1a morphants. The experiment is described as follows: Drug-discovery platform (locomotor screen, then Seahorse), scn1a morphant genetic model. The experiment is classed as in vivo, zebrafish. Conditions: blinded study. The procedure:
(§3) 10 mM stock solutions of drugs in DMSO were stored at −80° C. and on the day of assay were diluted in E3 medium to a final concentration of 20 μM. For behavioral assays and Seahorse bioenergetics, 20 μM final concentration was used. Adult wild-type TL zebrafish were raised at the Kurrasch Aquatic Research Laboratory at the University of Calgary under standard conditions (28° C., 14 h light/10 h dark cycle) on a recirculating water system.
(§4) Embryos were obtained by natural spawning from mating pairs, screened for viability and for kcna1 and scn1a morpholino models, embryos were injected with either the kcna1- or scn1a-targeting morpholino at the one cell stage. The embryos were sorted for uptake of the morpholino four hours post-injection and seeded to 96 well plates, wrapped in aluminum foil (i.e., raised in the dark), maintained in a non-CO2 incubator at 28.5° C. until 5 dpf.
(§5) On the day of assay, for the kcna1 and scn1a morpholino models, fish were habituated for 20 minutes under 100% light treated with 20 μm of drugs for 20 minutes, and then assayed for locomotor activity in dark for 20 minutes in the zebrabox (Viewpoint Lifesciences, Lyon, Fr). Larval locomotor activity was analyzed using Zebralab V3 software (Viewpoint Lifesciences, Lyon, Fr). For the PTZ model, at 5 dpf, fish were treated with 10 mM PTZ for 10 minutes and then with 20 μM of drugs for 20 minutes under ambient light, and then assayed for locomotor activity under 100% light for 20 minutes in the zebrabox (Viewpoint Lifesciences, Lyon, Fr). Larval locomotor activity was analyzed using Zebralab V3 software (Viewpoint Lifesciences, Lyon, France).
(§6) For the Seahorse bioenergetics measurements, microinjected kcna1 or scn1a morphants or WT zebrafish were maintained in 96 well plates as previously described. XF24 extracellular flux assay plates (Seahorse Bioscience; Massachusetts), were hydrated overnight with XF Calibrant (pH 7.4). […]

In another experiment the test system is kcna1 morphants. The experiment is described as follows: Drug-discovery platform (locomotor screen, then Seahorse), kcna1 morphant genetic model. Conditions: blinded study. It counts as in vivo, zebrafish. The procedure:
as §3, §4, §5, §6

The subject of the next experiment is kcna1 morphant zebrafish. As to the kind of experiment: Seahorse bioenergetic analysis, kcna1 morphants. Conditions: Seahorse Bioanalyzer; for effect on elevated basal respiration in kcna1 morphant larvae: 24-well plate. It counts as in vivo.
Description: (§7) One exemplary protocol for measuring oxygen consumption rates (OCR) using Extracellular Flux Analyzer (Seahorse Bioscience, Billerica Mass.) is described below. First, sensor cartridges are hydrated in XF Calibrant Solution in 24-well cell culture microplates overnight at 28.5 C. Prior to experiment, injection ports are filled with appropriate treatments and loaded into XH24 instrument. Staged zebrafish embryos (3 days post fertilization used here) are individually placed in 20 of the 24 wells (4 wells serve as controls) on the islet microplate filled with E3 buffer and islet plate capture screens are placed on top to keep living zebrafish from moving during experiment. Plates are loaded into the instrument and six measurement cycles were taken to establish basal rates, which were then followed by treatment injections and 18 additional measurement cycles. OCRs were calculated at cycles five and six and then averaged to create the basal respiration. FCCP treatment was used to measure maximum OCR and oligomycin was used to measure minimum OCR.
as §1
FIG. 4 provides workflow and results of bioenergetic analyses in a hyperactive zebrafish. […] The plates were loaded into XFe24 Seahorse Bioanalyzer. Basal, maximal, non-mitochondrial, and mitochondrial cellular respiration were measured.

In another experiment the test system is kcna1 mutants. The experiment is described as follows: Seahorse basal respiration, kcna1 genetic mutant larvae. The experiment is classed as in vivo, zebrafish. The following applies: larvae with increased basal respiration washed with PBS and treated. The procedure: This example confirms that the results of drug screens using zebrafish morphants are the same in zebrafish bearing corresponding germline mutations. kcna1^+/− zebrafish were generated as described in Example 1. Heterozygous kcna1^+/− F1s were incrossed and the offspring examined in a behavioral monitoring chamber (Zebralab). We assume ¾ of the progeny are WT or heterozygotes and ¼ are mutants.
Next, a similar experiment was conducted to confirm that kcna1 mutants display a similar phenotype for mitochondrial function (e.g., increased mitochondrial function). Larvae were seeded into 24-well plates and assayed in the Seahorse machine for altered bioenergetics as discussed above. […] Increased basal respiration levels in approximately 25% of the embryos were also detected, as would be expected for a homozygous recessive mutation. […] Genotype was subsequently confirmed by qPCR (FIG. 9D).

In the next experiment the test system is kcna1 mutant zebrafish. As to the kind of experiment: EEG / extracellular field recordings on live zebrafish larvae. The experiment is classed as in vivo. The following applies: kcna1 mutants plus vorinostat (10 μM). The procedure: First, EEG recordings on live zebrafish were conducted. Briefly, acute seizure-like activity is measured in WT and mutant zebrafish larvae (5 dpf). Extracellular field recordings were obtained from the optic tectum of zebrafish larvae exposed first to vehicle, then washed out and then exposed to candidate drugs. Recordings are collected over 20 minutes and any decrease in small-amplitude “interictal”-like activity and/or large-amplitude “ictal”-like activity is quantified.

The test system of another experiment is Kv1.1 null mice. As to the kind of experiment: Video EEG seizure recording in Kv1.1 rodent model. The experiment is classed as in vivo. Conditions: three Kv1.1−/− mice; 20 mg/kg, twice a day, three consecutive days (PND 46-48) vs no treatment (PND 43-45); Two-way ANOVA, F=27.7, p<0.01. The procedure:
Second, candidate drugs that decrease interictal-and/or ictal-like activity in mutant zebrafish lines are then validated in rodent models. Two rodent lines that contain coding deletions in the mammalian orthologs to the zebrafish mutants were used. Candidate drugs were injected intracranially and a decrease in seizure behaviors are monitored using video and […].
Briefly, mice were anesthetized with 3% isofluorane for 2 minutes. Eye glue was applied to the mouse, and anesthesia […] to 2% isofluorane. A “toe pinch” was administered to check anesthetic effect. The surgical area was then shaved while still connected to anesthesia. The anesthesia was increased to 2.5% isofluorane and the anesthetic cone placed over the nose. […]
Vorinostat (Drug #90) treatment reduces seizure occurrence in Kv1.1 null mice. Shown is a representative example of an electrographic seizure recorded from a Kv1.1−/−mouse. Three sets of epidural electroencephalogram (EEG) electrodes simultaneously recorded the signals across the rostral (top trace), medial (middle), and caudal (bottom trace) dorsal aspect of the neocortex. Bar graph of the mean number of seizures per day recorded from three Kv1.1−/−mice. Mice were recorded 24 hours per day for 3 consecutive days (No treatment, PND 43-45) and then received vorinostat injections (20 mg/kg, twice a day) for the next three consecutive days (PND 46-48).

Experiment [2] relates to kcna1 zebrafish morphants. The experiment is described as follows: Behavioral hyperactivity (locomotion) assay, kcna1 morphants. It counts as in vivo. The following applies: larvae 5 days post fertilization; 10 minutes preincubation, assayed 20 minutes. The procedure: This Example utilizes the drug screening assay disclosed herein using morpholino-injected embryos to transiently knockdown genes of interest. Here, we compare three “epileptic” models for phenotypes in the behavioral assay: pharmacological-induction model (PTZ) and two genetic knockdown models (kcna1 and scn1a morphants).
Larvae were treated with morpholinos to kcna1 and scn1a as described above.
Zebrafish larvae (5 days post fertilization) were seeded into 96 well microliter plates containing vehicle solution and monitored for 20 minutes for hyperactivity. Morphants and WT zebrafish were exposed to drug for 10 minutes preincubation and then assayed for changes in hyperactivity for 20 minutes (Zebralab box). Drugs that decreased hyperactivity behavior by 40% in morphants were identified as “positive hits.”
These positive hits were then verified by conducting a dose-response relationship using hyperactivity as readout.

Experiment [3] deals with PTZ-induced hyperactive zebrafish. As to the kind of experiment: Seahorse bioenergetic analysis, PTZ-treated larvae. Conditions: Seahorse Bioanalyzer. It counts as in vivo.
Description: as §7, with “FCCP treatment was used to measure maximum OCR and oligomycin was used to measure minimum OCR.” left out
Next, all positive hits were assayed for improve bioenergetics using Seahorse bioanalyzer (Seahorse, Inc). […] Complete mitochondrial profile was assessed for each individual larvae. […]
FIG. 4 provides workflow and results of bioenergetic analyses in a hyperactive zebrafish. […] Basal, maximal, non-mitochondrial, and mitochondrial cellular respiration were measured.

The subject of experiment [4] is scn1a morphants. The experiment is described as follows: Seahorse basal respiration, scn1a morphants. It counts as in vivo. Conditions: scn1a-MO zebrafish. The procedure:
as §1, §2

`CC(C)C[C@H]1C(=O)N2CCC[C@H]2[C@]2(O)O[C@](NC(=O)[C@@H]3C=C4c5cccc6[nH]c(Br)c(c56)C[C@H]4N(C)C3)(C(C)C)C(=O)N12` [bromocriptine]: in the experiment with park2 morphants, the “effect on increased basal respiration in park2 morphants” value is “no effect”.

In the case of `N.N.[Cl][Pt][Cl]` [cisplatin], the “effect on increased basal respiration in cdkn2b morphants” value in the experiment with cdkn2b morphants was “reverses this increased bioenergetics to WT levels”. In addition, the “effect on increased basal respiration in smarcbla morphants” value in the experiment with smarcbla morphants is reported as “reverses this increased bioenergetics to WT levels”.

Consider `Cc1nc2n(c(=O)c1CCN1CCC(c3noc4cc(F)ccc34)CC1)CCCC2` [resperidon], for which the “effect on increased basal respiration in shank3 morphants” value in the experiment with shank3 morphants is listed as “Neither resperidon nor aripiprazole were effective”.

With `CC(Cc1ccccc1)(NC(=O)CN)c1ccccc1` (stereo not shown) [Remacemide], the “uncovered by the screening platform in genetic model (scn1a morphants)” value (from here on “uncovered … (scn1a morphants)”) in the experiment on scn1a morphants [1] is “would not have uncovered”. In addition, in the experiment on kcna1 morphants, the “uncovered by the screening platform in genetic model (kcna1 morphants)” value (“uncovered … (kcna1 morphants)” below) was “would not have uncovered”.

Turning to `CC(=O)N1N=C(c2ccc(N)cc2)c2cc3c(cc2C[C@H]1C)OCO3` [Talampanel], the “uncovered … (scn1a morphants)” value with scn1a morphants [1] is “would not have uncovered”. In the experiment on kcna1 morphants, the “uncovered … (kcna1 morphants)” value is on record as “would not have uncovered”.

In the case of `C[C@H](NCc1ccc(OCc2cccc(F)c2)cc1)C(N)=O` [Safinamide], in the experiment with scn1a morphants [1], the “uncovered … (scn1a morphants)” value is recorded as “would not have uncovered”. Moreover, the “uncovered … (kcna1 morphants)” value in the experiment on kcna1 morphants is reported as “would not have uncovered”.

`O=C1CCc2ccc(OCCCCN3CCN(c4cccc(Cl)c4Cl)CC3)cc2N1` [aripiprazole]: the “effect on increased basal respiration in shank3 morphants” value in the experiment with shank3 morphants is given as “Neither resperidon nor aripiprazole were effective”.

On to `O=C(CCCCCCC(=O)Nc1ccccc1)NO` [vorinostat], for which, in the experiment with kcna1 morphant zebrafish, the “events via which increased respiration was blocked, kcna1 morphants” value is “mitochondrial-mediated events” and the “effect on elevated basal respiration in kcna1 morphant larvae” value is on record as “blocked”. Moreover, the “effect on increased basal respiration in kcna1 mutant larvae” value in the experiment with kcna1 mutants is reported as “decreased”. For the same molecule, the “effect on seizure-like activity (EEG traces)” value with kcna1 mutant zebrafish was “blocks”. For the same molecule, the “number of seizures per day (video EEG)” value in the experiment on Kv1.1 null mice is “significantly reduced”.

For `O=P1(N(CCCl)CCCl)NCCCO1` (stereo not shown) [cyclophosphamide], in the experiment with smarcbla morphants, the “effect on increased basal respiration in smarcbla morphants” value was “no effect”.

Consider `CCCC(CCC)C(=O)O` [Valproic acid], for which the “effect on hyperactivity of kcna1 morphants” value in experiment [2] is “no effect”. In the experiment with kcna1 morphant zebrafish, the “events via which increased respiration was blocked, kcna1 morphants” value is recorded as “mitochondrial-mediated events” and the “effect on elevated basal respiration in kcna1 morphant larvae” value is “blocked”. Also, the “events via which elevated basal respiration was blocked, PTZ treated larvae” value in [3] was “non-mitochondrial-mediated events”. In addition, in experiment [3] (24-well plate), the “effect on elevated basal respiration in PTZ treated larvae” value is reported as “blocked”. The “effect on increased basal respiration in kcna1 mutant larvae” value in the experiment on kcna1 mutants is “decreased”. Besides, in the experiment on scn1a morphants [4], the “effect on increased basal respiration in scn1a morphants” value is “reduce basal respiration to WT levels”.

Consider `N[C@@H](Cc1ccc(O)c(O)c1)C(=O)O` [L-DOPA], for which the “effect on increased basal respiration in park2 morphants” value with park2 morphants is “reverses this increased bioenergetics to WT levels”.
